Assay results as given in patent US10399932B2, “Inhibitors of indoleamine-2,3-dioxygenase for the treatment of cancer” (BRISTOL-MYERS SQUIBB COMPANY, priority 2015, dated 2019).
pIC50: −log10 of the molar value.

Target: human IDO1 (Homo sapiens, UniProt P14902)
Test: Assessment of human IDO-1 inhibitory activity in HEK cells (human IDO1/HEK293 cells, Ehrlich reagent, absorbance at 490 nm)
Assay type: cell-based
Set-up: expressed in transfected cells
Conditions: In Vitro Potency in the HEK Human IDO-1 Cellular Assay
Description: Exemplary compounds were tested for inhibition of IDO activity.
HEK293 cells were transfected with a pCDNA-based mammalian expression vector harboring human IDO1 cDNA (NM 002164.2) by electroporation. They were cultured in medium (DMEM with 10% FBS) containing 1 mg/ml G418 for two weeks. Clones of HEK293 cells that stably expressed human IDO1 protein were selected and expanded for IDO inhibition assay.
The human IDO1/HEK293 cells were seeded at 10,000 cells per 50 μL per well with RPMI/phenol red free media contains 10% FBS in a 384-well black wall clear bottom tissue culture plate (Matrix Technologies LLC) 100 nL of certain concentration of compound was then added to each well using ECHO liquid handling systems. The cells were incubated for 20 hours in 37° C. incubator with 5% CO2.
The compound treatments were stopped by adding trichloroacetic acid (Sigma-Aldrich) to a final concentration at 0.2%. The cell plate was further incubated at 50° C. for 30 minute. The equal volume supernatant (20 μL) and 0.2% (w/v) Ehrlich reagent (4-dimethylaminobenzaldehyde, Sigma-Aldrich) in glacial acetic acid were mixed in a new clear bottom 384-well plate. This plate was then incubated at room temperature for 30 minute. The absorbance at 490 nm was measured on Envision plate reader.
Compound IC50 values were calculated using the counts of 500 nM of a reference standard treatment as one hundred percent inhibition, and counts of no compound but DMSO treatment as zero percent inhibition.

Chain of human IDO1 (P14902 whole entry): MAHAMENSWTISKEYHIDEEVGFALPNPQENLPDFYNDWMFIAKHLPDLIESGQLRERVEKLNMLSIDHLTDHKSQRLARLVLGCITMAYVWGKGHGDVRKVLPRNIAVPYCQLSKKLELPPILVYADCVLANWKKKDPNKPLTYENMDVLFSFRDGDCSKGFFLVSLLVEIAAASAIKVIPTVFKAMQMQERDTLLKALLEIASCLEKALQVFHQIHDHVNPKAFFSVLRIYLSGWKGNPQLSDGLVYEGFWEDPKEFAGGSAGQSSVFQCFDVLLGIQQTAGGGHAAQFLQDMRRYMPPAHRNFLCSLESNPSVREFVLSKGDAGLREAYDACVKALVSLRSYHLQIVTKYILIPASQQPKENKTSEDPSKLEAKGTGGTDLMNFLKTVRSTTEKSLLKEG

| pIC50 | SMILES |
| --- | --- |
| > 8.30 | CCC(CC(=O)O)c1cc(F)c(N(CC(C)C)CC(C)C)c(Nc2ccc(Cl)cc2)c1 (single isomer, unassigned) [Example 115, 3-(3-((4-chlorophenyl)amino)-4-(diisobutylamino)-5-fluorophenyl)pentanoic acid] |
| > 8.30 | CCOc1ncc(Nc2cc(C(CC)CC(=O)O)ccc2N(CC2CC2)C2CCOCC2)cn1 (single isomer, unassigned) [Example 711, 3-(4-((cyclopropylmethyl)(tetrahydro-2H-pyran-4-yl)amino)-3-((2-ethoxypyrimidin-5-yl)amino)phenyl)pentanoic acid] |
| > 8.30 | CCC(CC(=O)O)c1cc(NC(=O)Nc2ccc3c(c2)OCO3)c(N(CC(C)C)C2CCCCC2)cc1F (single isomer, unassigned) [Example 1112, 3-(5-(3-(Benzo[d][1,3]dioxol-5-yl)ureido)-4-(cyclohexyl(isobutyl)amino)-2-fluorophenyl)pentanoic acid] |
| < 7.30 | COCC(CC(=O)O)c1ccc(N(CC2CC2)C2CCOCC2)c(NC(=O)Nc2ccc(C)cc2)c1 (single isomer, unassigned) [Example 677, 3-(4-((Cyclopropylmethyl)(tetrahydro-2H-pyran-4-yl)amino)-3-(3-(p-tolyl)ureido)phenyl)-4-methoxybutanoic acid] |
| < 7.30 | CCC(CC(=O)O)c1ccc(N2C[C@@H](C)O[C@@H](C)C2)c(Nc2ccc(F)cc2)c1 (single isomer, unassigned) [Example 759] |
| < 7.30 | CCC(CC(=O)O)c1ccc(N2CCC[C@@H]2COC)c(NC(=O)Cc2ccc(C)cc2)c1 (single isomer, unassigned) [Example 1145] |
| > 7.30 | CCC(CC(=O)O)c1cc(F)c(N(CC(C)C)CC(C)C)c(Nc2ccc(OCC3CC3)cc2)c1 (single isomer, unassigned) [Example 122, 3-(3-((4-(cyclopropylmethoxy)phenyl)amino)-4-(diisobutylamino)-5-fluorophenyl)pentanoic acid] |
| > 8.30 | CCC(CC(=O)O)c1cc(NC(=O)Nc2ccc(C)cc2)c(N(CC(C)C)CC(C)C)cc1F (single isomer, unassigned) [Example 1130, 3-(4-(Diisobutylamino)-2-fluoro-5-(3-(p-tolyl)ureido)phenyl)pentanoic acid] |
| < 7.30 | CCC(CC(=O)O)c1cc(F)c(N(CC(C)C)CC(C)C)c(NC(=O)c2ccc(Cl)cc2)c1 (single isomer, unassigned) [Example 128, 3-(3-(4-Chlorobenzamido)-4-(diisobutylamino)-5-fluorophenyl)pentanoic acid] |
| > 7.30 | CCOc1ccc(CC(=O)Nc2cc(C(COC)CC(=O)O)ccc2N(CC(C)C)C2CCCCC2)cc1 (single isomer, unassigned) [Example 1242, 3-(4-(Cyclohexyl(isobutyl)amino)-3-(2-(4-ethoxyphenyl)acetamido)phenyl)-4-methoxybutanoic acid] |
| < 7.30 | CCC(CC(=O)O)c1ccc(N2CCC[C@H]2C(C)(C)O)c(Nc2ccc(OCC3CC3)cc2)c1 (single isomer, unassigned) [Example 834] |
| < 7.30 | CCOc1ccc(NC(=O)Nc2cc(C(COC)CC(=O)O)ccc2N(CC(C)C)C2CCOCC2)cc1 (single isomer, unassigned) [Example 1219, 3-(3-(3-(4-Ethoxyphenyl)ureido)-4-(isobutyl(tetrahydro-2H-pyran-4-yl)amino)phenyl)-4-methoxybutanoic acid] |
| < 7.30 | COCC(CC(=O)O)c1ccc(N(CC(C)C)C2CCOCC2)c(NC(=O)Nc2cc(C)on2)c1 (single isomer, unassigned) [Example 1220, 3-(4-(Isobutyl(tetrahydro-2H-pyran-4-yl)amino)-3-(3-(5-methylisoxazol-3-yl)ureido)phenyl)-4-methoxybutanoic acid] |
| > 7.30 | CCC(CC(=O)O)c1ccc(N(CC(C)C)C2CCCCC2)c(Nc2ccc(Cl)c(OCC3CC3)c2)c1 (single isomer, unassigned) [Example 652, 3-(3-((4-chloro-3-(cyclopropylmethoxy)phenyl)amino)-4-(cyclohexyl(isobutyl)amino)phenyl)pentanoic acid] |
